The results in this text go back to patent US20260256716A1, “COMPOSITIONS AND METHODS OF USE THEREOF” (Board of Supervisors of Louisiana State University and …, priority 2023, published 2026).

In one assay the test system is ARPE-19 cells. As to the kind of experiment: ARPE-19 proliferation (DAPI cell number, fold change in growth). The assay is classed as cell-based, human. The settings on record: ARPE-19, 72 h, R-DOI 0.1 nM or 1 nM. As for the experimental part:
Specific 5-HT2A Receptor Activation via Model Phenethylamines, like R-DOI. […] ARPE-19 cells were plated in nutrient rich media, DMEM, containing 7% dialyzed FCS and then starved in DMEM media containing 0.5% dialyzed FCS. Cells were then changed to 7% dialyzed FCS DMEM media containing physiolocial relevant levels of serotonin at varying concentrations and grown for 72-hours. Cell numbers were determined through DNA staining with DAPI and fold change in growth was determined from baseline readings at 24-hours. To assess if agonists of the 5HT2A receptor could enhance cell health and proliferation specifically through the 5-HT2A receptor, the model 5-HT2A receptor agonist, R-DOI was added at either 0.1 nM or 1 nM. […] Also, included is a summary of physiological serotonin and 5-HT2A receptor agonist/antagonist outcomes on cellular proliferation. This increase in proliferation promotes the formation of a compact RPE-monolayer which is important for maintaining a healthy blood-retinal barrier and can occur with low dose administration of 5-HT2A receptor agonists.
ARPE-19 cells were plated in nutrient rich media, DMEM, containing 7% dialyzed FCS and then starved in DMEM media containing 0.5% dialyzed FCS. Cells were then changed to 7% dialyzed FCS DMEM media containing physiological relevant levels of serotonin at varying concentrations and grown for 72-hours. Cell numbers were determined through DNA staining with DAPI and fold change in growth was determined from baseline readings at 24-hours. To assess if serotonin enhances cell health and proliferation specifically through the 5-HT2A receptor, the 5-HT2A receptor antagonist, M100,907 at 10 nM was included during serotonin induction.

In the next assay the test system is ARPE cells. As to the kind of experiment: Mitochondrial biomass and potential (MitoTracker staining / flow cytometry) in ARPE cells. It counts as cell-based, human. The conditions noted are these: 10 fold dilutions 100 nM to 0.001 nM; 48 hours. As for the experimental part: Representative 5-HT2A Receptor Agonist, R-DOI, Increases Mitochondrial Biogenesis and Function at low nM to sub nanomolar concentrations thereby reversing adverse processes that underlie development and progression of the Pathophysiology of Age-Associated Ocular and Neurodegenerative Diseases. ARPE cells were plated and treated with 10 fold dilutions of R-DOI from 100 nM to 0.001 nM. 48 hours post treatment, mitochondrial biomass was assessed either by staining for mitochondria using mitotracker (green, left panel) or via flow cytometry using MitoTracker Red CMOXROS that assesses both mitochondrial biomass and mitochondrial potential.

The subject of another assay is AMP kinase. As to the kind of experiment: AMP kinase activation in treated cells. It counts as cell-based. The settings on record: low nM concentrations.
The test system of the next assay is NRF-2. As to the kind of experiment: Western blot of NRF-2 expression in ARPE cells after H2O2 oxidative stress. The conditions noted are these: 1000 nM to 1 nM overnight, then H2O2, 24 hours, lower doses highest. The assay is classed as cell-based, human. As to the method:
ARPE cells were plated and treated with 10-fold dilutions of R-DOI from 1000 nM to 1 nM. Following an overnight treatment, cells were incubated with hydrogen peroxide (H2O2) to mimic an oxidative stress induced disease event. 24 hours later, cell lysates were collected and protein levels were normalized among samples and run on a western blot for comparison of NRF-2 expression relative to a cellular protein loading control, b-actin. While doses increased protective NRF-2 expression, lower doses increased NRF-2 to the highest levels, accentuating the need for appropriate dose ranges in facilitating treatment effects.

The subject of assay [1] is phosphorylated myosin light chain. As to the kind of experiment: Western blot of phosphorylated myosin light chain (MLC) in ARPE-19 cells under hyperglycemic conditions. It counts as cell-based, human. The conditions noted are these: ARPE-19, DMEM High glucose 7% FCS overnight; 10 nM; western blot. As to the method: A Hallmark of Age-Associated Ocular and Neurodegenerative Disorders is Cytoskeletal Alteration and Induction of CONTRACTILE Stress Fiber Formation. Expression and activation via phosphorylation of Myosin Light Chain (MLC), is a biomarker of disease development. ARPE-19 cells and ARPE-19 cells specifying 5-HT2AR knockouts were plated in nutrient rich media (DMEM; 7% FCS) overnight. Cells were fixed, permeabilized, and stained phalloidin and α-phosphorylated-Myosin light chain. Cytoskeletal elements were then visualized by fluorescent microscopy to visualize actin fiber cytoskeletal structures (phalloidin, red) and contractile phosphorylated myosin light chain (green) via fluorescent microscopy. […] ARPE-19 cells were cultured under hyperglycemic conditions in nutrient rich media (DMEM High glucose; 7% FCS) overnight either in the absence or presence of 5-HT2A receptor agonists R-DOI and 2CiBu at 10 nm or 100 nM concentrations. The relative expression of the activated disease biomarker contractile phosphorylated myosin light chain was determined using specific antibodies and western blot analysis. 5-HT2A agonists. […] Therefore, 5-HT2A agonism at low concentrations have the potential to prevent and reverse deleterious cytoskeletal events that can be induced under hyperglycemic conditions, such as in diabetics.
This can be consistent with 2C-iBu being able to regulate IOP and that 5HT2A agonists prevented edema formation and disruption of corneal architecture in a model of herpetic keratitis.
For orientation: Immunoblotting shows a protein as a band on a membrane.

Regarding `COc1cc(C[C@@H](C)N)c(OC)cc1I` (single isomer, unassigned) [R-DOI, R enantiomer 2,5-Dimethoxy-4-iodoamphetamine], in the assay with ARPE-19 cells, the “proliferation of RPE (fold change in growth)” value was “Stimulate and Restore Healthy Proliferation of RPE”. In addition, in the assay on ARPE cells, the “mitochondrial biomass and mitochondrial potential” value was “increased both mitochondrial biomass and potential”. In addition, in the assay on AMP kinase, the AMP kinase activation result is listed as “activation of AMP kinase”. Further, the NRF-2 expression entry in the assay on NRF-2 is listed as “Increases Expression of the master regulator of antioxidant gene expression NRF-2”; with NRF-2 (listed as (R)-DOI), “Upregulates Expression of NRF-2”. Moreover, the “hyperglycemia induced phosphorylated MLC levels” value in assay [1] is recorded as “suppressed hyperglycemia induced phosphorylated MLC levels”.
